Consider one molecule from patent US20110223671A1, “Methods for using positively and negatively selectable genes in a filamentous fungal cell” (priority 2008, published 2011).

Holding throughout (type): cell-based
Experiment [1] has as its system Fusarium venenatum WTY1449-3-3 (tk+). The experiment is described as follows: Reconstruction experiment, growth on FdU-supplemented minimal media, tk+ strain. The conditions noted are these: 50 μM FdU. On the procedure: (§1) To determine whether very low uridine concentrations could confer resistance to FdU in a tk+ strain, a reconstruction experiment was performed. The tk+ strain Fusarium venenatum WTY1449-3-3 and the tk− strain Fusarium venenatum WTY1449-9-1 were used. Spores of each strain were induced and plated at 50 spores per plate (Fusarium venenatum WTY1449-9-1) or 50,000 spores per 14 cm diameter plate (Fusarium venenatum WTY1449-3-3). In addition, a combination of WTY1449-3-3 and WTY1449-9-1 spores, […], were mixed and plated. All plates contained VNO3RLMT supplemented with 50 μM FdU. The uridine concentration in the plates was 1, 0.5, 0.25, or 0.1 mM. Each treatment was performed in triplicate.
(§2) Colonies appearing on the plates on which mixtures of tk+ and tk− spores had been plated were sub-cultured to fresh plates of VNO3RLMT medium supplemented with 50 μM FdU (NO uridine). An equivalent number of samples were also sub-cultured from the background growth (3 colonies per mixed plate) to VNO3RLMT+50 μM FdU (No uridine). In addition, colonies and background growth were sub-cultured from pure tk− plates and pure tk+ plates to plates of VNO3RLMT+50 μM FdU (no uridine). […]

In experiment [2] the test system is Fusarium venenatum EmY1154-46-4.3 (pyrG-deleted). The experiment is described as follows: Germination efficiency of spores of pyrG-deleted strain on uridine- and FdU-supplemented media. On the procedure: Germination efficiency of spores from the pyrG-deleted Fusarium venenatum strain EmY1154-46-4.3 on uridine- and FdU-supplemented media was tested. Spores of Fusarium venenatum EmY1154-46-4.3 were generated as described in Example 5 using RA medium supplemented with 10 mM uridine. Fifty spores in a volume of 200 μl were aliquoted to each of 45 VNO3RLMT plates (14 cm diameter) supplemented with 0, 25, or 50 μM FdU and 0, 0.01, 0.05, 0.1, or 0.25 mM uridine. Triplicate plates of each combination of FdU and uridine were set up and incubated in ChexAll Instant Seal Sterilization Pouches at 26° C. for 10 days.

For experiment [3], the system named is Fusarium venenatum WTY1449-9-1 (tk-). The experiment can be described thus: Reconstruction experiment, growth on FdU-supplemented minimal media, tk- strain. To be noted: 50 μM FdU. On the procedure:
as §1, §2

In experiment [4] the test system is Fusarium venenatum WTY1449-03-03 (bar+, tk+). The experiment is described as follows: Growth of spores of bar+, tk+ strain on FdU- and uridine-supplemented VNO3RLMT plates. The conditions noted are these: 6 days, 28° C. On the procedure: To this end the bar+, tk+ strain Fusarium venenatum WTY1449-03-03 was revived on VNO3RLMT-BASTA™ plates (as described in Example 1) and induced to produce spores as described in Example 5. After harvesting and washing, the spores were plated (50,000 spores per 14 cm diameter plate) to FdU-supplemented VNO3RLMT plates containing 50 μM FdU and varying concentrations of uridine (0.1-1 mM). These plates were incubated at 28° C. in ChexAll Instant Seal Sterilization Pouches for 6 days, after which they were evaluated for growth.

Experiment [5] concerns Fusarium venenatum WTY842-1-11. The experiment can be described thus: Sensitivity testing of Fusarium venenatum WTY842-1-11 to FdU (plug growth on VNO3RLMT). To be noted: 14 days. As to the method: For a thymidine kinase gene (tk) to be useful as a negatively selectable marker, a fungus must be […] to rather high concentrations of the nucleoside analog 5-fluoro-deoxyuridine (FdU). In order to ascertain the degree of sensitivity of Fusarium venenatum WTY842-1-11 to FdU, a one week old culture of Fusarium venenatum WTY842-1-11 was prepared by plating a colonized agar plug of the strain taken from a 10% glycerol stock, which had been stored at −140° C., onto a VNO3RLMT plate and incubating in a ChexAll Instant Seal Sterilization Pouch (Fisher Scientific, Pittsburgh, Pa., USA) for 7 days at 26-28° C. After 7 days plugs were cut sub-marginally from the one week old culture and placed face down on VNO3RLMT medium supplemented with different concentrations of FdU (0 to 500 μM) (Sigma Chemical Co., St. Louis, Mo., USA) in 6 well plates. The plates were incubated at 26-28° C. in open ZIPLOC® bags (S.C. Johnson Home Storage, Inc., Racine, Wis., USA) for 14 days, after which the extent of growth at each FdU concentration was recorded.

Take `O=c1[nH]c(=O)n([C@H]2C[C@H](O)[C@@H](CO)O2)cc1F` [FdU, 5-fluoro-deoxyuridine]: the growth entry in experiment [1] (uridine 0.1-1 mM plates) was “grew as a uniform haze”; in experiment [3] (all concentrations of uridine and medium lacking uridine) it was “grew well”; in experiment [4] (50 μM FdU plus uridine 0.1-1 mM), “extensive growth”; in experiment [4] (50 μM FdU, without uridine), “no growth”. Besides, the growth after sub-culture result is listed as “could absolutely not grow” in experiment [1] (uridine-deficient media) and “grew normally” in experiment [3] (uridine-deficient media). Also, the spore germination frequency result in experiment [2] (25 and 50 μM FdU, uridine 0.1 mM, 75% in the absence of FdU) is given as “approximately 50%”. Moreover, in experiment [2] (25 or 50 μM FdU, uridine 0.01 mM, 10 days, 26° C.), the spore germination entry is “could not germinate”. Also, the “sensitivity (extent of growth) to FdU” value in experiment [5] (FdU 0 to 500 μM, VNO3RLMT, 26-28° C.) was “insensitive”. The “FdU concentration at which growth was slightly reduced” value in experiment [5] (compared to concentrations of 50 μM and below) is “greater than 100 μM”.
